Results as given in US20120225061A1, “TETRASUBSTITUTED CYCLOHEXYL COMPOUNDS AS KINASE INHIBITORS” (priority 2011, published 2012).
Where two headings read alike, the source gives them in different places.

What was measured:
Pim3 kinase = Pim3 kinase (Homo sapiens, UniProt Q86V86); assay: Pim3 AlphaScreen assay (high ATP)
Description: The activity of Pim 1, Pim 2, & Pim 3 is measured using a homogeneous bead based system quantifying the amount of phosphorylated peptide substrate resulting from kinase-catalyzed phosphoryl transfer to a peptide substrate. Compounds to be tested are dissolved in 100% DMSO and directly distributed to a white 384-well plate at 0.25 μl per well. […] This is followed by the addition of 5 μl/well of Pim 1, Pim 2 or Pim 3 kinase in assay buffer (concentrations described below). Final assay concentrations (described below) are in 2.5% DMSO. The reactions are performed for ˜2 hours, then stopped by the addition of 10 μl of 0.75 μg/ml anti-phospho Ser/Thr antibody (Cell Signaling), 10 μg/ml Protein A AlphaScreen beads (Perkin Elmer), and 10 μg/ml streptavidin coated AlphaScreen beads in stop/detection buffer (50 mM EDTA, 95 mM Tris, pH=7.5, 0.01% Tween-20). The stopped reactions are incubated overnight in the dark. The phosphorylated peptide is detected via an oxygen anion initiated chemiluminescence/fluorescence cascade using the Envision plate reader (Perkin Elmer).

Pim2 kinase [1] = target: T1, Pim2 kinase (Homo sapiens, UniProt Q9P1W9); assay: Pim2 AlphaScreen assay (high ATP)
Pim1 kinase = Pim1 kinase (Homo sapiens, UniProt P11309); assay: Pim1 AlphaScreen assay (high ATP)
Pim1 kinase, sequence (P11309 whole entry): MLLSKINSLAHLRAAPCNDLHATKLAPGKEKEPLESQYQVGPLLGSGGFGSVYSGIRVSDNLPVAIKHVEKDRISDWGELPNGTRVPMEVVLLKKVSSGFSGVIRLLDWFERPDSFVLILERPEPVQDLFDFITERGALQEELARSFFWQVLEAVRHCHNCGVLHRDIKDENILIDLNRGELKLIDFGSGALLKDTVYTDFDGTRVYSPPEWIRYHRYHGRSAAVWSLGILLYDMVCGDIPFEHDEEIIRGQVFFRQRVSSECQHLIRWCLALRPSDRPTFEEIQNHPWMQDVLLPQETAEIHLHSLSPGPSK

[2] = system: KMS11 (human myeloma cell line); assay: Cell proliferation assay (CellTiter-Glo) in KMS11 cells; format: cell-based; conditions: KMS-11, 72 h, read-out: KMS11-luc EC50
Outline: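 KMS11 cells at 2000 per well in IMDM/10% FBS were exposed to compound for 3 days. Viability was read by CellTiter-Glo luminescence.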

Pim2 kinase [3] = target: T1, Pim2 kinase; assay: KinaseGlo Pim2 ATP depletion assay; format: biochemical; conditions: Table 4, 5 nM PIM2, 4 μM ATP, 10 μM BAD peptide
Description: The activity of PIM2 is measured using a luciferase-luciferin based ATP detection reagent to quantify ATP depletion resulting from kinase-catalyzed phosphoryl transfer to a peptide substrate. Compounds to be tested are dissolved in 100% DMSO and directly distributed into white 384-well plates at 0.5 μl per well. […] After 15 minutes, 10 μl of 8 μM ATP in assay buffer is added. Final assay concentrations are 5 nM PIM2, 4 μM ATP, 10 μM BAD peptide and 2.5% DMSO. The reaction is performed until approximately 50% of the ATP is depleted, then stopped with the addition of 20 μl KinaseGlo Plus (Promega Corporation) solution. The stopped reaction is incubated for 10 minutes and the remaining ATP detected via luminescence on the Victor2 (Perkin Elmer).

T1 sequence (Q9P1W9 whole entry): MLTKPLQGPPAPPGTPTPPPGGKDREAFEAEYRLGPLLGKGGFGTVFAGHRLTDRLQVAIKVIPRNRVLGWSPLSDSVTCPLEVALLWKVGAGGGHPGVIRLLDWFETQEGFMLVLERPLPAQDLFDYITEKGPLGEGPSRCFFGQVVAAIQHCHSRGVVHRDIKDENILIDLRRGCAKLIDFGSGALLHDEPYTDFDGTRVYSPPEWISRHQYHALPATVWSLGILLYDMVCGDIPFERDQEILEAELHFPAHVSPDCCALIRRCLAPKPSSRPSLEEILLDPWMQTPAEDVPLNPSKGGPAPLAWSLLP

Row | SMILES | IC50 (Pim3 kinase) [nM] | IC50 (Pim2 kinase [1]) [nM] | IC50 (Pim1 kinase) [nM] | EC50 ([2]; Table 4, 3 days) [nM] | EC50 ([2]; Table 5, 3 days) [nM] | IC50 (Pim2 kinase [3]) [nM]
1 | C[C@H]1C[C@@H](c2ccncc2NC(=O)c2nc(-c3cccc(F)n3)c(F)cc2N)C[C@@H](O)[C@]1(C)O [Example 126, 5-amino-N-(4-((1R,3R,4R,5S)-3,4-dihydroxy-4,5-dimethylcyclohexyl)pyridin-3-yl)-3,6′-difluoro-2,2′-bipyridine-6-carboxamide] | 3520 | 14200 | 40.1 | 8030 | 8030 | 43.1
2 | C[C@H]1C[C@@H](c2ccncc2NC(=O)c2nc(-c3nc(F)ccc3F)ccc2N)C[C@@H](O)[C@]1(C)O [Example 125, 5-amino-N-(4-((1R,3R,4R,5S)-3,4-dihydroxy-4,5-dimethylcyclohexyl)pyridin-3-yl)-3′,6′-difluoro-2,2′-bipyridine-6-carboxamide] | 601 | 2140 | 23.1 |  |  | 5.9
3 | C[C@H]1C[C@@H](c2ccncc2NC(=O)c2nc(-c3ccc(F)cn3)ccc2N)C[C@@H](O)[C@]1(C)O [Example 134, 5-amino-N-(4-((1R,3R,4R,5S)-3,4-dihydroxy-4,5-dimethylcyclohexyl)pyridin-3-yl)-5′-fluoro-2,2′-bipyridine-6-carboxamide] | 3390 | 14300 | 78.7 | 4150 | 4150 | 50.7
4 | C[C@H]1C[C@@H](c2ccncc2NC(=O)c2csc(-c3c(F)cccc3F)n2)C[C@@H](N)[C@]1(C)O [Example 26, N-(4-((1R,3R,4R,5S)-3-amino-4-hydroxy-4,5-dimethylcyclohexyl)pyridin-3-yl)-2-(2,6-difluorophenyl) thiazole-4-carboxamide] | 17.2 | 109 | 1.9 |  |  | 20.8
5 | C[C@H]1C[C@@H](c2ccncc2NC(=O)c2nc(-c3nc(Cl)c(C#N)cc3F)ccc2N)C[C@@H](O)[C@]1(C)O [Example 131, 5-amino-6′-chloro-5′-cyano-N-(4-((1R,3R,4R,5S)-3,4-dihydroxy-4,5-dimethylcyclohexyl)pyridin-3-yl)-3′-fluoro-2,2′-bipyridine-6-carboxamide] | 5090 | 17000 | 146 | ≥ 10000 | > 10000 | 51.6
6 | C[C@@H]1C[C@H](c2ccncc2NC(=O)c2csc(-c3c(F)cccc3F)n2)C[C@H](N)[C@@]1(C)O [Example 25, N-(4-((1S,3S,4S,5R)-3-amino-4-hydroxy-4,5-dimethylcyclohexyl)pyridin-3-yl)-2-(2,6-difluorophenyl)thiazole-4-carboxamide] | 992 | 8130 | 111 |  |  | 2010
7 | CC(C)Oc1cc(F)c(-c2nc(C(=O)Nc3cnccc3[C@H]3C[C@@H](O)[C@](C)(O)[C@@H](C)C3)ccc2F)c(F)c1 [Example 106, 6-(2,6-difluoro-4-isopropoxyphenyl)-N-(4-((1R,3R,4R,5S)-3,4-dihydroxy-4,5-dimethylcyclohexyl)pyridin-3-yl)-5-fluoropicolinamide] | 69.2 | 183 | 0.42 |  | 1540 | 
8 | C[C@H]1C[C@@H](c2ccncc2NC(=O)c2ccc(F)c(-c3c(F)cc(OC4CCOCC4)cc3F)n2)C[C@@H](O)[C@]1(C)O [Example 90, 6-(2,6-difluoro-4-(tetrahydro-2H-pyran-4-yloxy)phenyl)-N-(4-((1R,3R,4R,5S)-3,4-dihydroxy-4,5-dimethylcyclohexyl)pyridin-3-yl)-5-fluoropicolinamide] | 64.4 | 215 | 0.47 |  | 557 | 
9 | C[C@@H]1C[C@H](c2ccncc2NC(=O)c2ccc(F)c(-c3c(F)cc(C(C)(C)O)cc3F)n2)C[C@H](O)[C@@]1(C)O [Example 74, 6-(2,6-difluoro-4-(2-hydroxypropan-2-yl)phenyl)-N-(4-((1S,3S,4S,5R)-3,4-dihydroxy-4,5-dimethylcyclohexyl)pyridin-3-yl)-5-fluoropicolinamide] | 2870 | 6340 | 18.8 |  | 3470 | 
10 | C[C@@H]1C[C@H](c2ccncc2NC(=O)c2ccc(F)c(-c3c(F)cccc3F)n2)C[C@H](N)[C@@]1(C)O [Example 28, N-(4-((1S,3S,4S,5R)-3-amino-4-hydroxy-4,5-dimethylcyclohexyl)pyridin-3-yl)-6-(2,6-difluorophenyl)-5-fluoropicolinamide] | 138 | 476 | 18.3 |  |  | 229
11 | C[C@H]1C[C@@H](c2ccncc2NC(=O)c2ccc(F)c(-c3c(F)cc(C4(F)CCOCC4)cc3F)n2)C[C@@H](O)[C@]1(C)O [Example 113, 6-(2,6-difluoro-4-(4-fluorotetrahydro-2H-pyran-4-yl)phenyl)-N-(4-((1R,3R,4R,5S)-3,4-dihydroxy-4,5-dimethylcyclohexyl)pyridin-3-yl)-5-fluoropicolinamide] | 127 | 128 | 0.55 |  | 248 | 
12 | C[C@H]1C[C@@H](c2ccncc2NC(=O)c2ccc(F)c(-c3c(F)cc(OC4CCNCC4)cc3F)n2)C[C@@H](O)[C@]1(C)O [Example 112, 6-(2,6-difluoro-4-(piperidin-4-yloxy)phenyl)-N-(4-((1R,3R,4R,5S)-3,4-dihydroxy-4,5-dimethylcyclohexyl)pyridin-3-yl)-5-fluoropicolinamide] | 18.3 | 56.5 | 0.11 |  | 4150 | 
13 | C[C@H]1C[C@@H](c2ccncc2NC(=O)c2ccc(F)c(-c3c(F)cc(C4(F)COC4)cc3F)n2)C[C@@H](N)[C@]1(C)O [Example 69, N-(4-((1R,3R,4R,5S)-3-amino-4-hydroxy-4,5-dimethylcyclohexyl)pyridin-3-yl)-6-(2,6-difluoro-4-(3-fluorooxetan-3-yl)phenyl)-5-fluoropicolinamide] | 4.2 | 6.42 | 0.09 |  | 423 | 

Stronger by IC50 (Pim3 kinase), values ahead:

Row | IC50 (Pim3 kinase) [nM] | IC50 (Pim2 kinase [1]) [nM] | IC50 (Pim1 kinase) [nM] | EC50 ([2]; Table 4, 3 days) [nM] | EC50 ([2]; Table 5, 3 days) [nM] | IC50 (Pim2 kinase [3]) [nM] | SMILES
14 | 0.99 | 5.73 | 0.11 | 140 | 138 | 3.8 | C[C@H]1C[C@@H](c2ccncc2NC(=O)c2ccc(F)c(-c3c(F)cccc3F)n2)C[C@@H](N)[C@]1(C)O [Example 27, N-(4-((1R,3R,4R,5S)-3-amino-4-hydroxy-4,5-dimethylcyclohexyl)pyridin-3-yl)-6-(2,6-difluorophenyl)-5-fluoropicolinamide]
15 | 1.23 | 8.44 | 0.09 |  | 1400 |  | C[C@H]1C[C@@H](c2ccncc2NC(=O)c2ccc(F)c(-c3c(F)cc(OCC(=O)N(C)C)cc3F)n2)C[C@@H](N)[C@]1(C)O [Example 93, N-(4-((1R,3R,4R,5S)-3-amino-4-hydroxy-4,5-dimethylcyclohexyl)pyridin-3-yl)-6-(4-(2-(dimethylamino)-2-oxoethoxy)-2,6-difluorophenyl)-5-fluoropicolinamide]
16 | 0.69 | 2.15 | 0.04 |  | 340 |  | COCCCOc1cc(F)c(-c2nc(C(=O)Nc3cnccc3[C@H]3C[C@@H](N)[C@](C)(O)[C@@H](C)C3)ccc2F)c(F)c1 [Example 100, N-(4-((1R,3R,4R,5S)-3-amino-4-hydroxy-4,5-dimethylcyclohexyl)pyridin-3-yl)-6-(2,6-difluoro-4-(3-methoxypropoxy)phenyl)-5-fluoropicolinamide]
17 | 1.16 | 4.33 | 0.07 |  | 42 |  | Cc1cc(F)c(-c2nc(C(=O)Nc3cnccc3[C@H]3C[C@@H](N)[C@](C)(O)[C@@H](C)C3)ccc2F)c(F)c1 [Example 13, N-(4-((1R,3R,4R,5S)-3-amino-4-hydroxy-4,5-dimethylcyclohexyl)pyridin-3-yl)-6-(2,6-difluoro-4-methylphenyl)-5-fluoropicolinamide]
18 | 0.61 | 1.5 | 0.02 |  | 175 |  | C[C@H]1C[C@@H](c2ccncc2NC(=O)c2ccc(F)c(-c3c(F)cc4c(c3F)OCC4)n2)C[C@@H](N)[C@]1(C)O [Example 102, N-(4-((1R,3R,4R,5S)-3-amino-4-hydroxy-4,5-dimethylcyclohexyl)pyridin-3-yl)-6-(5,7-difluoro-2,3-dihydrobenzofuran-6-yl)-5-fluoropicolinamide]
19 | 2.09 | 6.31 | 0.08 |  | 57 |  | COCCOc1cc(F)c(-c2nc(C(=O)Nc3cnccc3[C@H]3C[C@@H](N)[C@](C)(O)[C@@H](C)C3)ccc2F)c(F)c1 [Example 7, N-(4-((1R,3R,4R,5S)-3-amino-4-hydroxy-4,5-dimethylcyclohexyl)pyridin-3-yl)-6-(2,6-difluoro-4-(2-methoxyethoxy)phenyl)-5-fluoropicolinamide]
20 | 0.65 | 1.45 | 0.02 |  | 85 |  | C[C@H]1C[C@@H](c2ccncc2NC(=O)c2ccc(F)c(-c3c(F)cc(O[C@@H]4CCCOC4)cc3F)n2)C[C@@H](N)[C@]1(C)O [Example 148, N-(4-((1R,3R,4R,5S)-3-amino-4-hydroxy-4,5-dimethylcyclohexyl)pyridin-3-yl)-6-(2,6-difluoro-4-((R)-tetrahydro-2H-pyran-3-yloxy)phenyl)-5-fluoropicolinamide]
